Values after ≈ are worked out from the molar mass of the structure shown.
Tests used:
CYP1A2 = target: T1, CYP1A2 (Homo sapiens, UniProt P05177); assay: Inhibition of human cytochrome P450 CYP1A2; assay type: in vitro ADME; conditions: human cytochrome P450 enzyme
T1 sequence (P05177 1-516): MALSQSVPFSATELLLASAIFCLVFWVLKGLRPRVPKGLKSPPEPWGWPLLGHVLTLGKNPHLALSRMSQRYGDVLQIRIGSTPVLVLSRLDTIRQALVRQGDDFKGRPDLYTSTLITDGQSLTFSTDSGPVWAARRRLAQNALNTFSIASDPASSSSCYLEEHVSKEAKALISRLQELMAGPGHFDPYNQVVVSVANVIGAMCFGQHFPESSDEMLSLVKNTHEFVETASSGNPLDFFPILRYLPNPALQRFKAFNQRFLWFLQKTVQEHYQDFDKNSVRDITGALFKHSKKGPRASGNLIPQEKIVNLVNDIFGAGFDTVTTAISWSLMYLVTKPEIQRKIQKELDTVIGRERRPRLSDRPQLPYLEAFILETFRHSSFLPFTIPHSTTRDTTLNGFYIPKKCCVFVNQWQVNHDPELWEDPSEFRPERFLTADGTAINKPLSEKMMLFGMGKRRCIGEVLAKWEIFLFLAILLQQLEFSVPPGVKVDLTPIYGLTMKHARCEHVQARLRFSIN
From the text: (§1) The epoxidation of arachidonic acid (AA) by selected cytochrome P450 epoxygenases generates epoxyeicosatrienoic acids (EETs). These EETs show anti-inflammatory, antihypertensive, analgesic, angiogenic, and antiatherosclerotic effects in rodents and humans. sEH converts EETs to their corresponding dihydroxyeicosatrienoic acids (DHETs), whereby the biological effects of EETs are diminished, eliminated, or altered. Among the P450 enzymes, it is known that CYP2C19 and CYP1A2 have the highest formation rate of EETs from AA (cf. A. A. El-Sherbeni et al. “Repurposing resveratrol and fluconazole to modulate human cytrochrome P450-mediated arachidonic acid metabolites”, Molecular Pharmaceutics 2016, vol. 13, pp. 1278-1288). For this reason, a highly desirable aspect of any new sEH inhibitor is selectivity in front of CYP2C19 and CYP1A2.

[1] = Determination of water solubility (nephelometry); assay type: physicochemical; conditions: aqueous with cosolvent or surfactant or cyclodextrin, kinetic from dmso stock; 5% DMSO: 95% PBS buffer, 37° C., read after 2 and 4 h; read-out: S (solubility)
sEH in AR42j cells = target: T2, sEH in AR42j cells (Rattus norvegicus, UniProt P80299); assay: In vitro determination of sEH inhibition activity in AR42j cells (cell-based fluorescent assay); conditions: AR-42J, read-out: % Inhn. ± SE (100 μM), sEH inhibition activity in cell culture
T2 sequence (P80299 1-554): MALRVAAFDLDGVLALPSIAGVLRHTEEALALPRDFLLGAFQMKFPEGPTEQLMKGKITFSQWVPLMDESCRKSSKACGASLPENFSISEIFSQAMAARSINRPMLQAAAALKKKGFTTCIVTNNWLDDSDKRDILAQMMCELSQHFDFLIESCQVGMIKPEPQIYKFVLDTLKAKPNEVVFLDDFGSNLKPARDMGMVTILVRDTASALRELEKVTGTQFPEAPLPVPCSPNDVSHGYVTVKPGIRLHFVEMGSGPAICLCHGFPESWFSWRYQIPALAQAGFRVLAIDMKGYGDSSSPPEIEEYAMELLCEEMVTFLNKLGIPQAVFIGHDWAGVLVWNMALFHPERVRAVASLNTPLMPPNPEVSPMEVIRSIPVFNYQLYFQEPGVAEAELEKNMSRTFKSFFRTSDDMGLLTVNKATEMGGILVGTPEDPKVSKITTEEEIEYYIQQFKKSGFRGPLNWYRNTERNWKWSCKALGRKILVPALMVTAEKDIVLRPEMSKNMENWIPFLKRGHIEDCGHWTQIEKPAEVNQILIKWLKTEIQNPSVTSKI
Description: Solutions Preparation: • Assay buffer 1×: add 10 mL of the CBA-Buffer (10×) to 90 mL of distilled water. • Lysis Buffer: add 50 μL of the CBA Digitonin Solution to 10 mL of Buffer Assay 1×. • Substrate Solution: dilute 10 μL of CBA sEH Substrate with 10 mL of Assay Buffer 1×. • Standards: preparation of 7 concentrations of CBA 6-methoxy-2-naphtalaldehyde from 0 until 2 M with Assay Buffer 1×. • sEH Positive Control: Prepare another stock A (1 μg/ml: 1 μL CBA sEH Positive Control+1 mL Assay Buffer 1×). From the already prepared stock A, prepare 250 μL of sEH (10 ng/mL): 2.5 μL sEH stock A+250 μL Assay Buffer 1×). • sEH Inhibitor AUDA: dilute 10 μL CBA sEH Inhibitor with 500 ml Assay Buffer 1×. • Inhibitors dissolved in DMSO at appropriated concentrations.
Seed cells in a 96-well plate at a density of (2×10^4)-(5×10^4) cells/well in 100 μL of culture medium with or without compounds to be tested. Incubation of the cells in a CO2 incubator at 37° C. for 48 hours. Aspirate the culture medium and add 200 μL of Assay Buffer 1× to each well. Centrifuge the plate at 800 rmp for 5 minutes. Aspirate the supernatant and add 100 μL of Lysis Buffer to each well. Incubate with gentle shaking on an orbital shaker for 30 minutes at room temperature. Centrifuge the plate at 3000 rpm for 20 minutes at 4° C. Transfer 90 μL of the supernatants to the 96-Well Solid Plate (black). Add 10 μL Assay Buffer 1× or 10 μL of the AUDA solution to appropriate wells. For positive control wells, add 100 μL of the 10 ng/mL sEH Positive Control to two wells. Add 200 μL of 6-methoxy-2-Naphthaldehyde Standards to corresponding wells of the black plate. Add 100 μL of the sEH Substrate Solution to each well, except the standards. Incubate the plate at 37° C. for 30 minutes. […] The intensity of fluorescence was used to analyze and calculate inhibition percentages, shown in the Table as average of minimum three independent replicates.

[2] = Determination of cytotoxicity in THLE-2 cells (ATP viability); assay type: cell-based; conditions: human; THLE-2 cells, 72 h exposure, 0-100 μM; read-out: LC50 (μM), cytotoxicity
Description: Cytotoxic effects of assayed compounds were tested using the immortalized human liver cell line THLE-2 (ATCC CRL-2706). Cells were cultured in BEGM medium (Clonetics # CC-4175) containing all the supplements kit except additional EGF and G418. Medium was completed by adding 0.7 μg/mL phosphoethanolamine, 0.5 ng/mL epidermal growth factor, antibiotics (penicillin and streptomycin) and 10% fetal bovine serum (FBS).
Cells were plated in 96-well black microplates at 10,000 cells/well density and were incubated at 37° C. (5% CO2, 95% humidity) for 24 h to allow the cells to adhere and form a monolayer. Test compounds were solubilized in 100% DMSO at a concentration curve way and then diluted with cell culture medium containing 10% DMSO. The final concentrations of the test compounds (1% DMSO) ranged from 0-100 μM in a final volume of 200 μL. Microplates were maintained at 37° C. (5% CO2, 95% humidity) during 3 days. Following this 72 h exposure to test compounds, cell viability in each well was determined by measuring the concentration of cellular adenosine triphosphate (ATP) using the ATP1Step Kit as described by the manufacturer (Perkin-Elmer). In a typical procedure, 50 μL of cell reagent is added to all wells of each test plate followed by incubation for 10 min at room temperature on an orbital shaker. ATP concentration was determined by reading chemical luminescence using the Envision plate reader (PerkinElmer). The percentage of viable cells relative to the non-drug treated controls was determined for each well and LC50 values were calculated as concentrations projected to kill 50% of the cells following a 72 h exposure, an average of minimum two independent replicates.

[3] = Parallel artificial membrane permeation assay for blood-brain barrier (PAMPA-BBB); assay type: in vitro ADME, porcine; conditions: PBS:EtOH (70:30)
Description: The in vitro permeability (Pe) of the test compounds through lipid extract of porcine brain membrane was determined. Assayed compounds were tested using a mixture of PBS:EtOH (70:30). […] From this equation and taking into account the limits established by Di et al. for BBB permeation, the ranges of permeability were established, as follows.

CYP2C19 = CYP2C19 (Homo sapiens, UniProt P33261); assay: Inhibition of human cytochrome P450 CYP2C19; assay type: in vitro ADME; conditions: human cytochrome P450 enzyme
From the text: as §1

Huh-7 cells = assay: Amelioration of palmitate-induced ER stress: ATF3, BiP and CHOP mRNA by real-time PCR; assay type: cell-based; conditions: palmitate 0.5 mM + inhibitor 1 μM, 48 h; for Level of CHOP mRNA: control (CT) = 100.0, PAL alone 224.5; for Level of BiP mRNA: control (CT) = 100.0, PAL alone 242.9; for Level of ATF3 mRNA: control (CT) = 100.0, PAL alone 585.5
Description: Huh-7 cells were maintained in a humid atmosphere of 5% CO2 at 37° C. in high glucose (25 mM) Dulbecco's modified Eagle's medium supplemented with 10% heat-inactivated fetal bovine serum, 1% of penicillin/streptomycin (10.000 units/mL of penicillin and 10.000 μg/mL of streptomycin) and 1% of amphotericin B (250 μg/mL).
Huh-7 cells were serum-starved overnight prior treatment. […] For RNA extraction, cells were pre-treated with the inhibitors (final concentration 1 μM) for 1 hour before treatment with palmitate (final concentration 0.5 mM) and inhibitors (final concentration 1 μM). For each condition, at least 3 replicates were performed. Following 48 hours of incubation, RNA were extracted as described below.
Total RNA in hepatocytes was harvested by TRIsure (Bioline) according to the manufacturer's instructions. The extracted RNA was dissolved in RNase-free water and concentrations of total RNA were quantified using a NanoDrop 2000c spectrophotometer (Thermo Scientific). First-stranded cDNA was synthesized from 0.5 μg total RNA (Life Technologies). […] The PCR reaction contained 10 ng of reverse-transcribed RNA, 2× IQ™ SYBRGreen Supermix (BioRad, Barcelona, Spain) and 900 nmol/L concentration of each primer. Optical primer amplification efficiency for each primer set was assessed and a dissociation protocol was carried out to assure a single PCR product. PCR assays were performed on a MiniOpticon™ Real-Time PCR system (BioRad). Thermal cycling conditions were as follows: activation of Taq DNA polymerase at 95° C. for 10 min, followed by 40 cycles of amplification at 95° C. for 15 sec and 60° C. for 1 min. The relative levels of specific mRNA were estimated from the value of the threshold cycle (Ct) of the real-time PCR adjusted by that of a housekeeping gene (GAPDH) through the formula […] (ΔCt=Gene of interest Ct-GAPDH Ct). Cf.

CYP2C19, sequence (P33261 whole entry): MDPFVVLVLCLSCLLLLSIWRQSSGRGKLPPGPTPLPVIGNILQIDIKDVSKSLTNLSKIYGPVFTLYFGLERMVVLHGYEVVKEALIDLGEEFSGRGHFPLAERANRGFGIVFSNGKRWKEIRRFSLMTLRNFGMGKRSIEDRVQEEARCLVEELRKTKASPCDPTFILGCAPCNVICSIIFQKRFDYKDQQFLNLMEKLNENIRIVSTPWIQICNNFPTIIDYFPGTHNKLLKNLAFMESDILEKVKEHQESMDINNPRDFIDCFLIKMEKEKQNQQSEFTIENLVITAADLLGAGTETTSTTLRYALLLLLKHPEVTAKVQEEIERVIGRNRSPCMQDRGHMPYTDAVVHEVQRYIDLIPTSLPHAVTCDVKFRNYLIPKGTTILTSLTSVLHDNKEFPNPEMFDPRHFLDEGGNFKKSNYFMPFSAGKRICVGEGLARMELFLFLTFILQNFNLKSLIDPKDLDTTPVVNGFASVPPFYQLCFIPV

Structure (SMILES)	inhibition at 1 µM (CYP1A2) [%]	solubility [1] [µM]	inhibition at 100 µM (sEH in AR42j cells) [%]	CC50 at 72 h [2] [µM]	CNS prediction [3]	inhibition at 1 µM (CYP2C19) [%]	Level of CHOP mRNA (Huh-7 cells)	Level of BiP mRNA (Huh-7 cells)	Level of ATF3 mRNA (Huh-7 cells)
O=C(Nc1ccc(Cl)c(C(F)(F)F)c1)NC12CC3CC(CC(C3)O1)C2 [Iv, 1-(2-oxaadamantan-1-yl)-3-(4-chloro-3-(trifluoromethyl)phenyl)urea]	≤ 6	60 (≈ 22.5 µg/mL)	51.6 ± 6.6	45.8 ± 3.8	CNS+ (Compounds of high BBB permeation (CNS+): Pe (10^6 cm s^−1)>5.181)	≤ 6	–	–	–
O=C(Nc1ccc(F)c(F)c1F)NC1C2CC3CC(C2)CC1C3 (centres unmarked) [Std 2, 1-(Adamantan-2-yl)-3-(2,3,4-trifluorophenyl)urea, reference compound]	–	–	–	–	–	–	141.8 ± 23.7^(###)	135.1 ± 16.2^(###)	225.6 ± 21.2^(###)
CC(C)S(=O)(=O)N1CCC(NC(=O)NC23CC4CC(CC(C4)O2)C3)CC1 [Io, 1-(2-oxaadamant-1-yl)-3-(1-(isopropylsulfonyl)piperidin-4-yl)urea]	≤ 6	> 100	40.9 ± 1.99	> 100	CNS− (compounds of low BBB permeation (CNS−): Pe (10^6 cm s^−1)<2.107)	≤ 6	–	–	–
O=C(Nc1ccc(F)c(F)c1F)NC12CC3CC(CC(C3)C1)C2 [Std 1, 1-(Adamantan-1-yl)-3-(2,3,4-trifluorophenyl)urea, reference compound]	–	66 (≈ 21.4 µg/mL)	56.6 ± 11	–	–	–	–	–	–
O=C(NC1CCN(C(=O)c2ccccc2F)CC1)NC12CC3CC(CC(C3)O1)C2 [Is, 1-(2-oxaadamant-1-yl)-3-(1-(2-fluorobenzoyl)piperidin-4-yl)urea]	≤ 6	> 100	45.3 ± 3.5	> 100	CNS− (compounds of low BBB permeation (CNS−): Pe (10^6 cm s^−1)<2.107)	≤ 6	–	–	–
O=C(Nc1cccc(S(F)(F)(F)(F)F)c1)NC12CC3CC(CC(C3)O1)C2 [Ix, 1-(2-oxaadamantan-1-yl)-3-(3-(pentafluoro-λ^6-sulfanyl)phenyl)urea]	≤ 6	> 100	–	–	–	≤ 6	–	–	–
O=C(Nc1cc(Cl)cc(OC(F)(F)F)c1)NC12CC3CC(CC(C3)O1)C2 [Iu]	≤ 6	45 (≈ 17.6 µg/mL)	–	–	–	≤ 6	–	–	–
O=C(Nc1ccc(F)c(F)c1F)NC12CC3CC(CC(C3)O1)C2 [Ia, 1-(2-oxaadamantan-1-yl)-3-(2,3,4-trifluorophenyl)urea]	≤ 6	77 (≈ 25.1 µg/mL)	35.8 ± 4.7	> 100	CNS+ (Compounds of high BBB permeation (CNS+): Pe (10^6 cm s^−1)>5.181)	≤ 6	129.9 ± 37.6^(###)	129.0 ± 20.5^(###)	191.4 ± 22.6^(###)

— patent publication US20200079786A1, “ANALOGS OF […] AS SOLUBLE EPOXIDE HYDROLASE INHIBITORS” (UNIVERSITAT DE BARCELONA, priority 2015, published 2020)
